Consider 13 compounds from ChEMBL document CHEMBL3991601, “The target landscape of clinical kinase drugs” (Science, 2017).

The target in one assay is Activin receptor type-2B (Homo sapiens, UniProt Q13705).
Assay [1] deals with Tyrosine-protein kinase BTK (Homo sapiens, UniProt Q06187).
The target of assay [2] is Cyclin-dependent kinase 13 (Homo sapiens, UniProt Q14004).
Assay [3] concerns the target T1, Serine/threonine-protein kinase Chk1 (Homo sapiens, UniProt O14757).
T1 sequence (O14757 whole entry): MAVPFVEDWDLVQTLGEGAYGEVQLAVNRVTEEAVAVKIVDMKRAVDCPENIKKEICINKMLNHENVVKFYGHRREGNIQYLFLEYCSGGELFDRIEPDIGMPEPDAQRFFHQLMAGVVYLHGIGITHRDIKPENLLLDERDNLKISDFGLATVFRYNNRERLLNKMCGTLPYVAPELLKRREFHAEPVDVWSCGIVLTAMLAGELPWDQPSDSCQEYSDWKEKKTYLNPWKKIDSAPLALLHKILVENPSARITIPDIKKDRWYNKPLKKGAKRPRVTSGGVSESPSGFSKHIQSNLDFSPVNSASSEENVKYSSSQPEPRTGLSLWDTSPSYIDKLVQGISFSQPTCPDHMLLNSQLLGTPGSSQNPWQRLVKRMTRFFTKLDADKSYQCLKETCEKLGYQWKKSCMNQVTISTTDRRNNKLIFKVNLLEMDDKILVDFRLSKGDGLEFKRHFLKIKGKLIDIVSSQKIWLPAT

The next assay has as its target Ephrin type-A receptor 2 (Homo sapiens, UniProt P29317).
For assay [4], the target named is T2, RNA cytidine acetyltransferase (Homo sapiens, UniProt Q9H0A0).
T2 sequence (Q9H0A0 whole entry): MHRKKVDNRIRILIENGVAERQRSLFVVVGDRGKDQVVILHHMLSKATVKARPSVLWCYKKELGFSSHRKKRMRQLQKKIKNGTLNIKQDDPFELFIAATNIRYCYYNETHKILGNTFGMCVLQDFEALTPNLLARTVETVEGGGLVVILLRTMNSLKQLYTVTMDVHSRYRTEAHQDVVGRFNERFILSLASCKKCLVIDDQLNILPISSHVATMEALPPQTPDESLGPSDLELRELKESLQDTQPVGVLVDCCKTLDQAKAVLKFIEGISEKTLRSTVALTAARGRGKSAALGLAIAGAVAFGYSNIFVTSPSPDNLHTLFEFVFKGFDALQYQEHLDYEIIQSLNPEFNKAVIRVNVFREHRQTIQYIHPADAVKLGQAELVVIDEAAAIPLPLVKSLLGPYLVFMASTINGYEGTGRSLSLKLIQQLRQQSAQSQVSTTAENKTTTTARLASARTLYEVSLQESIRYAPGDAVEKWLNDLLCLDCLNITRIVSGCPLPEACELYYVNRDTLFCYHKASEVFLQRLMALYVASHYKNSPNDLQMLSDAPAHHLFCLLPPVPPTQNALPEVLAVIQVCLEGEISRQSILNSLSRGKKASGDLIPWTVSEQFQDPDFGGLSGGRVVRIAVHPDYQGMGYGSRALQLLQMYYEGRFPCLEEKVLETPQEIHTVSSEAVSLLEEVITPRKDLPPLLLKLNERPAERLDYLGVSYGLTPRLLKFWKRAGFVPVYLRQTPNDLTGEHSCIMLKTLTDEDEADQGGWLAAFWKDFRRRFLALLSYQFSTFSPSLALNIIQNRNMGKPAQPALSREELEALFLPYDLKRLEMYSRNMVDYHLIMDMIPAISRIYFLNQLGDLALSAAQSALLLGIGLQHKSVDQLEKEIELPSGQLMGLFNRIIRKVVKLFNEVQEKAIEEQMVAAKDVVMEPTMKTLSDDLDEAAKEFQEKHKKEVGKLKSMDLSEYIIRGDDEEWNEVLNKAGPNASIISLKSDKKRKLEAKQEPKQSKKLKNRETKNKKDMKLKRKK

Assay [5] addresses Protein kinase C beta type (Homo sapiens, UniProt P05771).
The target of assay [6] is T3, Serine/threonine-protein kinase 3 (Homo sapiens, UniProt Q13188).
T3 sequence (Q13188 whole entry): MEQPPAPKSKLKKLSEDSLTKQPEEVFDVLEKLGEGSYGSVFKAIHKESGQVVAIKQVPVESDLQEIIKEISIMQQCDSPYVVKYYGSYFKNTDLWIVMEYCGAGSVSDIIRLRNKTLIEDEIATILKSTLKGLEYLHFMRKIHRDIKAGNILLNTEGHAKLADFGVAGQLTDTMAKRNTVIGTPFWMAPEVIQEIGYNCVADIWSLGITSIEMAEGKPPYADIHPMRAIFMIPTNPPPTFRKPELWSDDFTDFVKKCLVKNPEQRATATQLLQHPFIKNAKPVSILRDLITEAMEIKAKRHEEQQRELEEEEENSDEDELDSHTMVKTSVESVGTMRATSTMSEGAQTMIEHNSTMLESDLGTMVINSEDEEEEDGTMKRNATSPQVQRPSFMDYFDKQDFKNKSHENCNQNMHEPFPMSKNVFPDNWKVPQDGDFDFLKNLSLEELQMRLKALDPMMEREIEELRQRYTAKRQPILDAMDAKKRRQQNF

Assay [7] addresses DNA topoisomerase 2-alpha (Homo sapiens, UniProt P11388).

Molecules are shown by their SMILES. Calls of active or inactive are those of the source. For most assays here, no stated cut-off is given here; in the data, actives have a measured Kd and inactives only a lower limit.

Activin receptor type-2B, sequence (Q13705 whole entry): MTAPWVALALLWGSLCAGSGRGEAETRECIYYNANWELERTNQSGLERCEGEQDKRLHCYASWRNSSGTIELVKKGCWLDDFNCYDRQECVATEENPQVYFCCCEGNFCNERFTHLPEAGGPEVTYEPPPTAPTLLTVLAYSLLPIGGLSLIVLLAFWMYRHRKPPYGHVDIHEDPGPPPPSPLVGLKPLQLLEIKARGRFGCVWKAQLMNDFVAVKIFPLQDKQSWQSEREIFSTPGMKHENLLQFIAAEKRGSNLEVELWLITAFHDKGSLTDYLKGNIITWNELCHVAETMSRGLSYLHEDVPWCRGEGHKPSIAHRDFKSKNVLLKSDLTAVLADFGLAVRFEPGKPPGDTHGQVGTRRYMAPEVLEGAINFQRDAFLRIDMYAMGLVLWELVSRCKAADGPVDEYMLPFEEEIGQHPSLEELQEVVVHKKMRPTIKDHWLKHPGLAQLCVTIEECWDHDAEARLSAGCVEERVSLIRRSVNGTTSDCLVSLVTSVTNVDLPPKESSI
Ephrin type-A receptor 2, sequence (P29317 whole entry): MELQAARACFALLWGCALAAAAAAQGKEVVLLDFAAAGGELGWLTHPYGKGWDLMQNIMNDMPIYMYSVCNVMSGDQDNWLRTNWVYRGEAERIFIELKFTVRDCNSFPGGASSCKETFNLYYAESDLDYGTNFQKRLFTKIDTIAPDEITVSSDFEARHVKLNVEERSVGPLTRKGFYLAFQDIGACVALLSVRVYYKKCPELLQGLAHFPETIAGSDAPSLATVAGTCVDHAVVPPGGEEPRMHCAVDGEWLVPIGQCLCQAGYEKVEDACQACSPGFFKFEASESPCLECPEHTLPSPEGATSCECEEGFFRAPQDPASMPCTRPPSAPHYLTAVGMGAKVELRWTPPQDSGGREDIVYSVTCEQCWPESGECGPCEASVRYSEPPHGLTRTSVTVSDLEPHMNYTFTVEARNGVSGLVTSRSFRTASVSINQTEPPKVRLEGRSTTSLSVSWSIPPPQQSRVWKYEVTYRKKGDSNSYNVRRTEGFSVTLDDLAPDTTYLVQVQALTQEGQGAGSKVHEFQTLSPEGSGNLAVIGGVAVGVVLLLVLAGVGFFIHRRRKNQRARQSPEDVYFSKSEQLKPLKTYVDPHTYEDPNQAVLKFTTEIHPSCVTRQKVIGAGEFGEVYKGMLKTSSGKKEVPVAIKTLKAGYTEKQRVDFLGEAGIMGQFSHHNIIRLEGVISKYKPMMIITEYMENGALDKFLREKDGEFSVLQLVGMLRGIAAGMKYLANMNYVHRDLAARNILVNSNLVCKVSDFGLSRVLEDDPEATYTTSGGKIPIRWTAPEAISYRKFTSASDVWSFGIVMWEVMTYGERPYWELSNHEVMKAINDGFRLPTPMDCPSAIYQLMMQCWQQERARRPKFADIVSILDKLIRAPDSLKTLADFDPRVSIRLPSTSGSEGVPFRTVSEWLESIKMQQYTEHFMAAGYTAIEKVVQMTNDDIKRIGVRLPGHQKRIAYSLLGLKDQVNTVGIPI
DNA topoisomerase 2-alpha, sequence (P11388 whole entry): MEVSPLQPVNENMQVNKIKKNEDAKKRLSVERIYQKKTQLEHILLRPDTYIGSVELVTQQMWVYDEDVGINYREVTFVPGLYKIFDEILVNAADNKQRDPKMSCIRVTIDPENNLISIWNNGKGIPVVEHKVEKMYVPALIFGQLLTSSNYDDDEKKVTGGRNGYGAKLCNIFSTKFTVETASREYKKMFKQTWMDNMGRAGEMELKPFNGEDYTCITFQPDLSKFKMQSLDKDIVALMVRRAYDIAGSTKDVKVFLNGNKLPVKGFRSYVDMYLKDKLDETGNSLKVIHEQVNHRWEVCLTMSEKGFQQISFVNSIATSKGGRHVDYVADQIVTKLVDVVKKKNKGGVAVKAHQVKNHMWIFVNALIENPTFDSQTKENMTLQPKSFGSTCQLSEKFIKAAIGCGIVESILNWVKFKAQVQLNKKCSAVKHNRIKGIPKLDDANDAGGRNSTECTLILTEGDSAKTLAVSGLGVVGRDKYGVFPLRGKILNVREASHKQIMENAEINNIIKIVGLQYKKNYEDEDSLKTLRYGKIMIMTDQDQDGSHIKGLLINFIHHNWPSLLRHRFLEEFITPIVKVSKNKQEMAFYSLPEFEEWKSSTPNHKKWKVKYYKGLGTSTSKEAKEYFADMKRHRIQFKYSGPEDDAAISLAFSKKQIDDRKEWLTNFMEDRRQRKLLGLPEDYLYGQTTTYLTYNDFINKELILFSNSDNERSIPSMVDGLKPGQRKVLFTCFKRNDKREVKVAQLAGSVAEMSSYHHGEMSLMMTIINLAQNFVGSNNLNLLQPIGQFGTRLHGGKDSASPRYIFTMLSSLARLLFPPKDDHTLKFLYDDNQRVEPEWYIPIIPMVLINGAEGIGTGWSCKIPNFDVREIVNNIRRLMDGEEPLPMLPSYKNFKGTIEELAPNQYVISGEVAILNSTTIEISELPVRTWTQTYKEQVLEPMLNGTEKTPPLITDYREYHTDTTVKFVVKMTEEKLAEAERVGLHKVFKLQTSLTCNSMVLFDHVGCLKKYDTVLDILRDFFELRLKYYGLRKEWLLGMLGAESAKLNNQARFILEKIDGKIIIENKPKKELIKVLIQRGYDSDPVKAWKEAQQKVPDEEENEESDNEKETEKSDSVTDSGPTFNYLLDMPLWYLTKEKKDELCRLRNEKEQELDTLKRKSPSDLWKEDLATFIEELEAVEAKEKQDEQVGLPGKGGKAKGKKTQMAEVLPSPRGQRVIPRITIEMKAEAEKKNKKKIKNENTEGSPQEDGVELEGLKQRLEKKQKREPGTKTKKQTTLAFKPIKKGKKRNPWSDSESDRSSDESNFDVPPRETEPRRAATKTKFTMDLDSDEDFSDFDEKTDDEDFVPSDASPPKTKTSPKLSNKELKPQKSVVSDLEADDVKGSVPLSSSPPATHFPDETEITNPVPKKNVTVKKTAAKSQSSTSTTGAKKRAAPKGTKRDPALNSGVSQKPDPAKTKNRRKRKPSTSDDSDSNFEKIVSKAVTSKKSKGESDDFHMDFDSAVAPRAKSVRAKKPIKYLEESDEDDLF
Cyclin-dependent kinase 13, sequence (Q14004 whole entry): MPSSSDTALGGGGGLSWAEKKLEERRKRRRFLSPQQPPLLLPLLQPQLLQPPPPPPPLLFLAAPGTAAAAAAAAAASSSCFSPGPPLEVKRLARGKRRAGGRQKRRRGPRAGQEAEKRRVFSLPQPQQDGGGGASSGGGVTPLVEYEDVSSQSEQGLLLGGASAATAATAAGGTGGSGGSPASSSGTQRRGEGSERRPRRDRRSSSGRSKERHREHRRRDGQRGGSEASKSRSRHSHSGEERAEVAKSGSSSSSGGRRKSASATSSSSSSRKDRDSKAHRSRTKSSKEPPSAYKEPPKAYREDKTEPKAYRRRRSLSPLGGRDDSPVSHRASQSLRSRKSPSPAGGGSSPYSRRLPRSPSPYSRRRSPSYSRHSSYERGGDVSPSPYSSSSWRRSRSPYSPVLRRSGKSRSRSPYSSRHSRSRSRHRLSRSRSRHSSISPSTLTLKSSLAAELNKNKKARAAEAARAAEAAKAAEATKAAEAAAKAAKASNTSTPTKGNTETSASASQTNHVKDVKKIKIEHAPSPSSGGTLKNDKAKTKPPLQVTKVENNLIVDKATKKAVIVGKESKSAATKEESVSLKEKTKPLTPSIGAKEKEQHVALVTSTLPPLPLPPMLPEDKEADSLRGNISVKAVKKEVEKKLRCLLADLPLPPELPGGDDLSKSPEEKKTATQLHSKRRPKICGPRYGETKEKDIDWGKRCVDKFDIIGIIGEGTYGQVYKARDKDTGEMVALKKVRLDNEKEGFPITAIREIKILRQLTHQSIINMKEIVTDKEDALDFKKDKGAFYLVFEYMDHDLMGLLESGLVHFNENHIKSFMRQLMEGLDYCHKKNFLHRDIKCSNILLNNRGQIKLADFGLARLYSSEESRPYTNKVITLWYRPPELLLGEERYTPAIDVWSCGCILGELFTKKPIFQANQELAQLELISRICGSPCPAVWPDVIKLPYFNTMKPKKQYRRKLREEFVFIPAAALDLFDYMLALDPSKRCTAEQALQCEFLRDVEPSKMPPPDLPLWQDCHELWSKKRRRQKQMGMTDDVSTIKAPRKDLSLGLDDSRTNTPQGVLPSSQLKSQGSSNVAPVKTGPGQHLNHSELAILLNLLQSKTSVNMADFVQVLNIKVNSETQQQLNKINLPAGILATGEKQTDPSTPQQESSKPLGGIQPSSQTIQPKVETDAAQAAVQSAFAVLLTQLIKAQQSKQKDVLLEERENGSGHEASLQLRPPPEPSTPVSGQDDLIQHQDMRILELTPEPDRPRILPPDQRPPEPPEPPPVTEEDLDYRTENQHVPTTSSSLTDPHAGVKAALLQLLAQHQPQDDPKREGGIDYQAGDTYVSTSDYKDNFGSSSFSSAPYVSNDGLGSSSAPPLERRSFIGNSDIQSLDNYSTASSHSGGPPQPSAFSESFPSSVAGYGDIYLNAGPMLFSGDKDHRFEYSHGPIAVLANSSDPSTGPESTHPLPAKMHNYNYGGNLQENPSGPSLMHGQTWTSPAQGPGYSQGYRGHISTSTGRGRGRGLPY

On to `CC[C@@H]1C(=O)N(C)c2cnc(Nc3ccc(C(=O)N[C@H]4CC[C@H](N5CCN(CC6CC6)CC5)CC4)cc3OC)nc2N1C(C)C` [VOLASERTIB], for which the Kd (on Activin receptor type-2B; in [1]; in assay [2]; in [3]; on Ephrin type-A receptor 2; in [4]) was > 30 µM (inactive) in each case. Also, the Kd in assay [5], in [6] and in [7] was > 30 µM (inactive) throughout.
`Cc1ccc(S(=O)(=O)Nc2nc3ccccc3nc2Nc2ccc3nsnc3c2)cc1`: the Kd (in assay [1]; in assay [2]; in [3]; at Ephrin type-A receptor 2; in assay [4]; in assay [5]) was > 30 µM (inactive) each time. The Kd in [6] and in [7] was > 30 µM (inactive) throughout.
On to `COc1cc(OC)c(/C=C/S(=O)(=O)Cc2ccc(OC)c(NCC(=O)O)c2)c(OC)c1` [RIGOSERTIB], for which the Kd (at Activin receptor type-2B; in [1]; in assay [2]; in assay [3]; at Ephrin type-A receptor 2; in assay [4]) was > 30 µM (inactive) in each case. The Kd in assay [5], in [6] and in [7] was > 30 µM (inactive) in each case.
On to `CCn1c(=O)c(-c2cc[nH]n2)cc2c(C)nc(N)nc21` [VOXTALISIB], for which the Kd (on Activin receptor type-2B; in assay [1]; in assay [2]; in assay [3]; on Ephrin type-A receptor 2; in assay [4]) was > 30 µM (inactive) throughout. The Kd in assay [5], in [6] and in assay [7] was > 30 µM (inactive) throughout.
In the case of `CO[C@H]1C[C@@H]2CC[C@@H](C)[C@@](O)(O2)C(=O)C(=O)N2CCCC[C@H]2C(=O)O[C@H]([C@H](C)C[C@@H]2CC[C@@H](OCCO)[C@H](OC)C2)CC(=O)[C@H](C)/C=C(\C)[C@@H](O)[C@@H](OC)C(=O)[C@H](C)C[C@H](C)/C=C/C=C/C=C/1C` [EVEROLIMUS], the Kd (at Activin receptor type-2B; in assay [1]; in assay [2]; in [3]; on Ephrin type-A receptor 2; in assay [4]) was > 30 µM (inactive) throughout. Moreover, the Kd in assay [5], in assay [6] and in assay [7] was > 30 µM (inactive) throughout.
For `CCCS(=O)(=O)Nc1ccc(F)c(C(=O)c2c[nH]c3ncc(-c4ccc(Cl)cc4)cc23)c1F` [VEMURAFENIB], the Kd (on Activin receptor type-2B; in assay [1]; in assay [2]; in assay [3]; at Ephrin type-A receptor 2; in assay [4]) was > 30 µM (inactive) each time. The Kd in assay [5], in assay [6] and in [7] was > 30 µM (inactive) in each case.
`O=C(Nc1ccc(-c2ccnc(Nc3ccc(N4CCOCC4)cc3)n2)cc1)C1CCCN1` (centres undefined) [XL-019]: the Kd (on Activin receptor type-2B; in assay [1]; in assay [2]; in assay [3]; on Ephrin type-A receptor 2; in assay [4]) was > 30 µM (inactive) throughout. In addition, the Kd in assay [5], in assay [6] and in assay [7] was > 30 µM (inactive) in each case.
`Cn1ncc(Cl)c1-c1cc(C(=O)N[C@H](CN)Cc2cccc(F)c2)sc1Cl` [AFURESERTIB]: the Kd (on Activin receptor type-2B; in assay [1]; in [2]; in assay [3]; on Ephrin type-A receptor 2; in assay [4]) was > 30 µM (inactive) each time. Also, the Kd in assay [5] is 4.88 µM (active); in [6] it was > 30 µM (inactive); in assay [7], > 30 µM (inactive).
For `CC(=O)Nc1cccc(-n2c(=O)n(C3CC3)c(=O)c3c(Nc4ccc(I)cc4F)n(C)c(=O)c(C)c32)c1` [TRAMETINIB], the Kd (on Activin receptor type-2B; in [1]; in assay [2]; in assay [3]; on Ephrin type-A receptor 2; in [4]) was > 30 µM (inactive) each time. For the same compound, the Kd in assay [5], in assay [6] and in assay [7] was > 30 µM (inactive) throughout.
Take `COC(=O)N[C@@H](C)CNc1nccc(-c2cn(C(C)C)nc2-c2cc(Cl)cc(NS(C)(=O)=O)c2F)n1` [ENCORAFENIB]: the Kd (at Activin receptor type-2B; in [1]; in assay [2]; in [3]; at Ephrin type-A receptor 2; in [4]) was > 30 µM (inactive) each time. Further, the Kd in [5], in assay [6] and in assay [7] was > 30 µM (inactive) in each case.
On to `CNC(=O)c1ccc(-c2cnc3ncc(Cc4ccc5ncccc5c4)n3n2)cc1F` [CAPMATINIB], for which the Kd (on Activin receptor type-2B; in [1]; in [2]; in [3]; on Ephrin type-A receptor 2; in assay [4]) was > 30 µM (inactive) each time. Also, the Kd in [5], in assay [6] and in assay [7] was > 30 µM (inactive) in each case.
For the compound `COC(=O)[C@@]1(O)C[C@H]2O[C@]1(C)n1c3ccccc3c3c4c(c5c6ccccc6n2c5c31)C(=O)NC4` [K-252A], the Kd on Activin receptor type-2B was > 30 µM (inactive); in assay [1], 1.57 µM (active); in [2], > 30 µM (inactive); in [3], 0.122 µM (active); on Ephrin type-A receptor 2 it was > 30 µM (inactive); in assay [4] it was > 30 µM (inactive). For the same compound, the Kd is 0.043 µM (active) in assay [6] and > 30 µM (inactive) in assay [7].
Take `O=C(O)[C@]1(Cc2cccc(Nc3nccs3)n2)CC[C@@H](Oc2cccc(Cl)c2F)CC1` [MK-5108]: the Kd (at Activin receptor type-2B; in assay [1]; in assay [2]; in assay [3]; in [4]; in assay [5]) was > 30 µM (inactive) throughout. For the same compound, the Kd in assay [6] is 2.27 µM (active); in assay [7] it was > 30 µM (inactive).
